Drawing on ChEMBL document CHEMBL5653631, “A Potent and Selective ULK1 Inhibitor Suppresses Autophagy and Sensitizes Cancer Cells to Nutrient Stress” (iScience, 2018), this text covers fold change (FC) and inhibition for three molecules.

Assay [1] concerns the target Protein kinase C gamma type (Homo sapiens) (UniProt P05129). Description: Inhibition of human recombinant PKCg at 40 nM related to control ULK1.
The target of assay [2] is Protein kinase C iota type (Homo sapiens) (UniProt P41743). Description: Inhibition of human recombinant PKCi at 40 nM in presence of ATP by radiometric assay relative to control.
Assay [3] concerns the target Vascular endothelial growth factor receptor 2 (Homo sapiens) (UniProt P35968). Description: Inhibition of human recombinant KDR at 40 nM in presence of ATP by radiometric assay relative to control.
For assay [4], the target named is T1, Calcium/calmodulin-dependent protein kinase type IV (Homo sapiens) (UniProt Q16566).
T1 sequence (whole entry): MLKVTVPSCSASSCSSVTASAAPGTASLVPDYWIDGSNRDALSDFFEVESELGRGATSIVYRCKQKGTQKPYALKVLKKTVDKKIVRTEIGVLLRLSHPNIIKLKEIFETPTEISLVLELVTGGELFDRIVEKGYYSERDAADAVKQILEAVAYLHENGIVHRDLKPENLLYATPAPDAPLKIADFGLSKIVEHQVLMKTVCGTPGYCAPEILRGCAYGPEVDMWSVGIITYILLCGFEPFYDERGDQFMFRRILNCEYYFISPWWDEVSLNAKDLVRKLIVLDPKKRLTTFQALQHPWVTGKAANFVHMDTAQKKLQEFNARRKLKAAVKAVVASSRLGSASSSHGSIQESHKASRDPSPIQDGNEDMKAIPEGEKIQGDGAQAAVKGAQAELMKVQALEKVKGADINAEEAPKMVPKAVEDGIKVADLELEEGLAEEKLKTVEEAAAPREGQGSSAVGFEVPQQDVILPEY
Description: Inhibition of human recombinant CaMK4 at 40 nM in presence of ATP by radiometric assay relative to control.

The target in assay [5] is Serine/threonine-protein kinase 10 (Homo sapiens) (UniProt O94804). Nature of the assay: Inhibition of human recombinant LOK at 500 nM related to control ULK1.
Chain of Serine/threonine-protein kinase 10 (Homo sapiens) (O94804 whole entry, looked up): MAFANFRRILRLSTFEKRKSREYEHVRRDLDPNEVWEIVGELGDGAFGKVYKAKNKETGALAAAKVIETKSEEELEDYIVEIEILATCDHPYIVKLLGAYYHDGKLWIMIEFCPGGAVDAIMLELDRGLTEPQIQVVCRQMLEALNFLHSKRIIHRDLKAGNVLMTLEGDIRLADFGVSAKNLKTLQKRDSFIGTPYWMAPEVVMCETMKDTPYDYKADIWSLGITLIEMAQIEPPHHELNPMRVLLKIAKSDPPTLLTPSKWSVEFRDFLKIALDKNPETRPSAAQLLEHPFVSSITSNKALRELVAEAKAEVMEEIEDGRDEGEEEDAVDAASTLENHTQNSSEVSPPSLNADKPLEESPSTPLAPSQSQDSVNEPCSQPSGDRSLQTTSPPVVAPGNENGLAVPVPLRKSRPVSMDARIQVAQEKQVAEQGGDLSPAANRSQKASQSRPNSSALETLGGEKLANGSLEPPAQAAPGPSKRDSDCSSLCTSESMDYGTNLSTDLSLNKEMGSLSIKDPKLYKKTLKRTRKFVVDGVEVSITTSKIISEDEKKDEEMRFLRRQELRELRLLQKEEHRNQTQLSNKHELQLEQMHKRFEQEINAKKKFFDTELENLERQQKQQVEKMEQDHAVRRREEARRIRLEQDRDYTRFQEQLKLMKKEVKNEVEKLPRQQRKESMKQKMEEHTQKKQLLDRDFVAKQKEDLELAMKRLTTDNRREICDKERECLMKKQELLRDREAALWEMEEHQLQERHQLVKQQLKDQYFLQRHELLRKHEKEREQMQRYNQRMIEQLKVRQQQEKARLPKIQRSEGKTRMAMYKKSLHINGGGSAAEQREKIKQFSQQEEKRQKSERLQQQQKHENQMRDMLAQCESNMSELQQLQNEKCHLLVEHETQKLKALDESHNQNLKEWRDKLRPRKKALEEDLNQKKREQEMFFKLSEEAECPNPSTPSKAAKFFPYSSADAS
The target in assay [6] is T2, Ephrin type-A receptor 3 (Homo sapiens) (UniProt P29320).
T2 sequence (whole entry): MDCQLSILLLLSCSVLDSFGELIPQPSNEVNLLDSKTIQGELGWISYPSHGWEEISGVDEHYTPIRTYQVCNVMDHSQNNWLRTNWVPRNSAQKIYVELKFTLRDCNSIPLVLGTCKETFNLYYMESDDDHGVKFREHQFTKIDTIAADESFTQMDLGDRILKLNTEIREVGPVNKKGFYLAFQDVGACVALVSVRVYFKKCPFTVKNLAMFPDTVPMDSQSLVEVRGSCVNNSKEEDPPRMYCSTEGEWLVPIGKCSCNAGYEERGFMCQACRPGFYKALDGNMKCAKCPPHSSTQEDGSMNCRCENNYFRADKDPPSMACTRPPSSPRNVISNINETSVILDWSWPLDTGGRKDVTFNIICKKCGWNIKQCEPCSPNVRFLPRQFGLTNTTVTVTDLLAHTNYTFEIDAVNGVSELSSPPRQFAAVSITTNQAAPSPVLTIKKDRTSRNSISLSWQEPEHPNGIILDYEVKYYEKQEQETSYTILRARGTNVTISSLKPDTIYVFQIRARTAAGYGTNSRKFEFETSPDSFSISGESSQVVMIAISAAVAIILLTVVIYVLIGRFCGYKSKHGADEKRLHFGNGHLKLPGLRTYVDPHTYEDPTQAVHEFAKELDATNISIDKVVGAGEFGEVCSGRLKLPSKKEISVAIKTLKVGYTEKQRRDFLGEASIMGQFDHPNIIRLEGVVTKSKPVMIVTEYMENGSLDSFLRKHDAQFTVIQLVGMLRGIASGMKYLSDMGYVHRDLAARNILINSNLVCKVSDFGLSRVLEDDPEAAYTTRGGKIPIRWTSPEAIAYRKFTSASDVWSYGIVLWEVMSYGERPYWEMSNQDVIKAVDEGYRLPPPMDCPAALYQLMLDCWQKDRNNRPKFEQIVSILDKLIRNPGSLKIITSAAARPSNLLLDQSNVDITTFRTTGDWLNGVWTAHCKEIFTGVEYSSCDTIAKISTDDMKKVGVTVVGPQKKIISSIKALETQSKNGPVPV
Description: Inhibition of human recombinant EphA3 at 15 nM related to control ULK1.

The target of assay [7] is High affinity nerve growth factor receptor (Homo sapiens) (UniProt P04629). Nature of the assay: Inhibition of human recombinant TRKA at 15 nM related to control ULK1.
Assay [8] addresses Serine/threonine-protein kinase SIK1 (Homo sapiens) (UniProt P57059). Nature of the assay: Inhibition of human recombinant SIK at 15 nM in presence of ATP by radiometric assay relative to control.
The target in assay [9] is Cyclin-dependent kinase 12 (Homo sapiens) (UniProt Q9NYV4). Description: Inhibition of human recombinant CRK7 at 15 nM in presence of ATP by radiometric assay relative to control.
Chain of Cyclin-dependent kinase 12 (Homo sapiens) (Q9NYV4 whole entry, looked up): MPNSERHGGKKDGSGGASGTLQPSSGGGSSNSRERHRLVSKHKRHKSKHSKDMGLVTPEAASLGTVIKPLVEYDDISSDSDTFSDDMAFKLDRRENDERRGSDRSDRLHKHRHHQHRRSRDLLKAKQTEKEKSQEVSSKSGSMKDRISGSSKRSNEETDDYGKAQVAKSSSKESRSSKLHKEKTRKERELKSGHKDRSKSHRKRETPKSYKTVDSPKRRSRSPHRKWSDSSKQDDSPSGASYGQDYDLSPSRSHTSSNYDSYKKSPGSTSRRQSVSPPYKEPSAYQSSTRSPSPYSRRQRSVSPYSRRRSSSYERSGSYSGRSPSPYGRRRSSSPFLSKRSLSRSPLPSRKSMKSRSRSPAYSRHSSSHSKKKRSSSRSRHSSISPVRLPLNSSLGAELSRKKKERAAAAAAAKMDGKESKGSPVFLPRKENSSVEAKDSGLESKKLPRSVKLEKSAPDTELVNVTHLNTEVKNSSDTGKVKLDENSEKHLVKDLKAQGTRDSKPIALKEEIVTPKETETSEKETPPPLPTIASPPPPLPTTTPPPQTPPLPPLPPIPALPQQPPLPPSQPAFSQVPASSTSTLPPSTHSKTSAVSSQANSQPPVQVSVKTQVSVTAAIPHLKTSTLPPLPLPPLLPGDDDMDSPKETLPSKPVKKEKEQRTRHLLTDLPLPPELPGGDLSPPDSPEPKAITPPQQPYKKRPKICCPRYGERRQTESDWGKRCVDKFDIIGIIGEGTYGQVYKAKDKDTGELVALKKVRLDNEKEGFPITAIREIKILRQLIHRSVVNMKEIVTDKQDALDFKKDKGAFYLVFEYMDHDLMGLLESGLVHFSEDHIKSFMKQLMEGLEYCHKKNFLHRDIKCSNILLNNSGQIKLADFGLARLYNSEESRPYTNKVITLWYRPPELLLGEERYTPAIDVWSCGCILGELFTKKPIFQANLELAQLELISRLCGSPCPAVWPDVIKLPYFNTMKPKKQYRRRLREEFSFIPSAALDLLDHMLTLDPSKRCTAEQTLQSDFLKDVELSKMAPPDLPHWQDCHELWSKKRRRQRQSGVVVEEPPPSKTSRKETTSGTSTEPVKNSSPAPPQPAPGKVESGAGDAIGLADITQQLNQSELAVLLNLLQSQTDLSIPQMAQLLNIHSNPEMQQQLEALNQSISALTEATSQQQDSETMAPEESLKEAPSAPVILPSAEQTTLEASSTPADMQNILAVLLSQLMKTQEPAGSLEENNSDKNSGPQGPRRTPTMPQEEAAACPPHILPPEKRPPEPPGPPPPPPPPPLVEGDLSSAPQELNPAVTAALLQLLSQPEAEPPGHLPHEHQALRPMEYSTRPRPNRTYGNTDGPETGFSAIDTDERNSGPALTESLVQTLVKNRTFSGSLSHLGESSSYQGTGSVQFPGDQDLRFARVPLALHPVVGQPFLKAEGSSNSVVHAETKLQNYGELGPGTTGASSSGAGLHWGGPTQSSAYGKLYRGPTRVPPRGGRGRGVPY
In assay [10] the target is Leucine-rich repeat serine/threonine-protein kinase 2 (Homo sapiens) (UniProt Q5S007). Nature of the assay: Inhibition of human recombinant LRRK2 at 15 nM related to control ULK1.
The target in assay [11] is Transient receptor potential cation channel subfamily M member 7 (Homo sapiens) (UniProt Q96QT4). Description: Inhibition of human recombinant ChaK1 at 15 nM in presence of ATP by radiometric assay relative to control.

Molecules are shown by their SMILES.

Chain of Vascular endothelial growth factor receptor 2 (Homo sapiens) (P35968 whole entry): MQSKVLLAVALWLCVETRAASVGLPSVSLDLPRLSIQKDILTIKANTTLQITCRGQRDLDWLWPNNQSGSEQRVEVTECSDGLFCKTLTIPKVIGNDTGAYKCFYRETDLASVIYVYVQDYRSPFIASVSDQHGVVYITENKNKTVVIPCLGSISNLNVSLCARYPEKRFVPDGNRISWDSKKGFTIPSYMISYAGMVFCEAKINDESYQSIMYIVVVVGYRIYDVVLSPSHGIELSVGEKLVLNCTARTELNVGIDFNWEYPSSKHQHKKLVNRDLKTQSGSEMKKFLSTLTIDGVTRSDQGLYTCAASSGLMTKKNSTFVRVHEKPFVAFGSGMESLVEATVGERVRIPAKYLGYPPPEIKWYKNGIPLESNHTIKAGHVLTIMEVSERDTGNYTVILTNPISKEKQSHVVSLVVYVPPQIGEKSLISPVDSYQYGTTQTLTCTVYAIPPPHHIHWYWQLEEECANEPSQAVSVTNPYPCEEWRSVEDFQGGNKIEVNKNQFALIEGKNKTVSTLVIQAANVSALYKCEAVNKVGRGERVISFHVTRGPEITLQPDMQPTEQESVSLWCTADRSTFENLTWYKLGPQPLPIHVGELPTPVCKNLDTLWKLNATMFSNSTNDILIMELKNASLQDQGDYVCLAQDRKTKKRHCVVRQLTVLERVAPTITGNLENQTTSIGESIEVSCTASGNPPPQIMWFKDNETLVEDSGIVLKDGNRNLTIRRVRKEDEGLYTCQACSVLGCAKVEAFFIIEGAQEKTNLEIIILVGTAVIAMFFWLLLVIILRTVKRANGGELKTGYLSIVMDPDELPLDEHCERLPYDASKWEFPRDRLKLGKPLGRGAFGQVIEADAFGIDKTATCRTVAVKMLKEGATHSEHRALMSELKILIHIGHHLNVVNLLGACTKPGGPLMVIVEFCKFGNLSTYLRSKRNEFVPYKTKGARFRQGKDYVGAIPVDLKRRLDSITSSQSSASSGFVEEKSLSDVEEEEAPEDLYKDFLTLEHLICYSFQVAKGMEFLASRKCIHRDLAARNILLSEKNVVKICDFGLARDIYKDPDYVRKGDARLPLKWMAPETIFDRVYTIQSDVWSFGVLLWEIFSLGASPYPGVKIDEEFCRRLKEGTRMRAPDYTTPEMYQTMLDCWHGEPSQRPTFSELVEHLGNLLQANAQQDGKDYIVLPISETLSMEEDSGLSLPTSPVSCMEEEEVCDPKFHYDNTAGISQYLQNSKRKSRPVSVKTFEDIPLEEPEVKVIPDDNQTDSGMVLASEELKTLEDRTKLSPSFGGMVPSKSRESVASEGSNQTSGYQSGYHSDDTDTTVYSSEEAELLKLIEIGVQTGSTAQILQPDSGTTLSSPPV
Chain of Serine/threonine-protein kinase SIK1 (Homo sapiens) (P57059 whole entry): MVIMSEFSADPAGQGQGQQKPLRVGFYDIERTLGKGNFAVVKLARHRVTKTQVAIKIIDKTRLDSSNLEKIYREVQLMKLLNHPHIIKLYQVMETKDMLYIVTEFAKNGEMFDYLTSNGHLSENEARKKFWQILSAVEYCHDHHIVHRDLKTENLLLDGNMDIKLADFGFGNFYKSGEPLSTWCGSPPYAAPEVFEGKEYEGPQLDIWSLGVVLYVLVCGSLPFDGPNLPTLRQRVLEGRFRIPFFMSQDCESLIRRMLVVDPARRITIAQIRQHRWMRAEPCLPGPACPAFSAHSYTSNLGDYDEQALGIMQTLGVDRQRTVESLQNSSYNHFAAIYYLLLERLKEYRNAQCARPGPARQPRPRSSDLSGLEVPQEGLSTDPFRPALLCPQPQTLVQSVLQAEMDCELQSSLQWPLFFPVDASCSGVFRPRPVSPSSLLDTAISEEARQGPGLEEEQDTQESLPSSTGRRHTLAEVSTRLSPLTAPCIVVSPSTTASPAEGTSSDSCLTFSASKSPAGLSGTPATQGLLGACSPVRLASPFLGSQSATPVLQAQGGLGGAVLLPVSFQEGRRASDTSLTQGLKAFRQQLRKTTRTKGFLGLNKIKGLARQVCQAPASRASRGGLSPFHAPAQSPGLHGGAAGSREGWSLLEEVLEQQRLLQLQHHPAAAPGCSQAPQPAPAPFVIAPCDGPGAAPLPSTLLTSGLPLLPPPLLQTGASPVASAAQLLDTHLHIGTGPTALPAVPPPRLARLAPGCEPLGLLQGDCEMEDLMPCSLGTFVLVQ

Broadly, the inhibition is how much of the control response was suppressed. `O=C(N[C@@H](C1CC1)C(F)(F)F)c1cc(-c2cnn3cc(-c4ccc(F)cc4)cnc23)cs1`: the fold change (FC) in assay [1] is 0. The results for the inhibition in assay [2], in [3] and in [4] were 0%, 5% and 0%, respectively.
As to `CNC(=O)c1ccccc1Oc1nc(Nc2cc(OC)c(OC)c(OC)c2)ncc1Br`, the fold change (FC) in assay [5] was found to be 0.
`CC(C)[C@H](NC(=O)c1cc(-c2cnn3cc(-c4ccc(OCCN5CCCCC5)cc4)cnc23)cs1)C(F)(F)F`: the results for the fold change (FC) in assay [6], in [7] and in assay [10] were 0.03, 0 and 0.03, respectively. In addition, the values for the inhibition in [8], in [9] and in assay [11] were 74%, 4% and 12%, respectively.
